Laboratory results from patent publication US9238650B2, “Solid forms of a pyrido-pyrimidinium inner salt” (E. I. DU PONT DE NEMOURS AND COMPANY, priority 2012, dated 2016).
“Also recorded” adds a separate entry of the source. Where a name gives a salt, the structure may show the parent alone.

Tests used:
Type in all cases: physicochemical
[1] = Solubility of Compound 1 in the test solvent, filtrate analyzed by HPLC; details: 22° C., 5 days, label = starting polymorph form(s)
Protocol: HPLC was used to determine the purity of Compound 1 and intermediates. An Agilent 1100/1200 series HPLC system with DAD/UV detector and reverse-phase column (Agilent Zorbax® SB C8 (4.6×150) mm, 3.5 μm, Part No. 863953-906) was used. Flow rate was 1 mL/min, run time 27 min, injection volume 3.0 μL, and the column oven temperature was 40° C. A mobile phase gradient according to Table 1 was used wherein mobile phase A was 0.03% by volume orthophosphoric acid and mobile Phase B was acetonitrile (HPLC grade). Mobile phase A was prepared by thoroughly mixing 0.3 mL of orthophosphoric acid (AR grade) with 999.7 mL of deionized water. Standard solutions were prepared by weighing 22.0±2.0 mg of the analytical standard in duplicate into separate 50-mL volumetric flasks, dissolving and diluting with the diluent. Samples were prepared by weighing 40.0±2.0 mg of the sample into a 100 mL standard volumetric flask, dissolving and diluting with the diluent. For analysis, the HPLC system and column were equilibrated with initial mobile phase. In the chromatographic sequence, blank samples, standard samples and test samples were run. The retention time for Compound 1 was about 22.2 min. Peaks appearing in the blank sample were not integrated, all other peaks were integrated and a % purity reported from the sample chromatogram. For wt % determination the concentration of test sample was calibrated against the standard sample.
(§1) Polymorph Forms A and B of Compound 1 were subjected to non-competitive and competitive interconversion experiments. […] For the competitive experiments, polymorph Forms A and B were mixed together and studied for the potential conversion to the more thermodynamically stable form. The starting polymorph form(s) were mixed with various solvents for 5 days at 22° C., and then filtered. The filtrate was analyzed by HPLC to determine the solubility of Compound 1 in the test solvent. The solids were dried and analyzed by pXRD.

[2] = Solid-liquid separation efficiency: time to complete filtration on a lab nutsche filter; details: for Filtration time: time required to complete filtration of 90 g from reaction mass
Protocol: In separate experiments, about 90 grams of Polymorph Forms A and B of Compound 1 were prepared according to PREPARATION EXAMPLE 1 and 2, respectively. The solids were filtered from their reaction mass using a lab nutsche filter. The times to complete the filtrations (indicated by no further liquid dripping from the filter) were measured and are reported in Table 12.

[3] = Relative stability (non-competitive and competitive interconversion) of polymorph Forms A and B in various solvents at 22° C., solids analyzed by pXRD; details: concluded from conversion of Form B to Form A in solvents at 22° C.
Protocol: as §1
A detailed description of the individual experiments for Examples 6a to 6j is given below.
(§2) In Example 6a, Form B of Compound 1 (0.3 g) was mixed with acetone (5 g) at 22° C. for 5 days. The slurry was then filtered through a syringe filter (0.45 μm glass fiber, type Whatman GE Autovial) and dried in a vacuum oven at 40° C. for 48 hours. Analysis by pXRD indicated Form A of compound 1.
as §2, with “6b,” for “6a,”, “B (0.3 g) and Form A (0.01 g)” for “B”, “were” for “(0.3 g) was”, “Compound” for “compound”
In Example 6c, Form B (0.3 g) of Compound 1 was mixed with tetrahydrofuran (5 g) at 22° C. for 5 days. […]

[4] = Crystal density by helium gas pygnometry
Source text: However, once Form B has converted to Form A in the slurry, the particles start to settle to the bottom of the flask rapidly after stirring is turned off indicating increased particle size of the Form A crystals. […] High particle size and settling velocities are important process advantages for solid-liquid separation operations in commercial manufacturing. Large average particle size improve filtration and centrifugation steps by increased filtration speeds, higher throughputs, lower propensity to filter cake cracking and resulting filtrate by-passing, increased cake wash efficiency and increased product purity.

[5] = Particle size distribution by laser diffraction particle size analyzer after dispersion in deionized water; details: dispersed in deionized water; for D50: median particle size; for D[4, 3]: volume-weighted mean particle size
Protocol: After the observation of increased settling velocity of Polymorph Form A compared to Form B (see CHARACTERIZATION EXAMPLE 9), the particle size distributions of the two forms were measured. Form B of Compound 1 was prepared according to PREPARATION EXAMPLE 2. Some of the Form B thus prepared was converted to Form A according to PREPARATION EXAMPLE 5. The particle size distribution of both Form A and B samples were determined after dispersion in deionized water using a laser diffraction particle size analyzer (model Mastersizer 2000 by Malvern Instruments, Malvern, UK). The particle size distribution parameters D10, D50 and D90 are reported in Table 13 below, wherein D50 represents the median particle size of the distribution, i.e. 50% of the particles are smaller and 50% are larger than that size. D10 indicates the particle size at which 10% of all particles are smaller than that size. Similarly, D90 indicates the particle size at which 90% of all particles are smaller than that size. The volume-weighted mean particle sizes D[4,3] are also reported.

[6] = Temperature-dependent X-ray powder diffraction of polymorph Form A; details: pure solid, heated from 25° C. to the melting point at 10° C. per minute
Protocol: To assess the stability of polymorph Form A of Compound 1 with respect to temperature, X-ray powder diffraction patterns were obtained while heating a sample of Form A from 25° C. to above its melting point. The measurement was conducted at the 5-IDD beam line at the Advanced Photon Source synchrotron located at the Argonne National Laboratory (Argonne, Ill., USA). A Differential-Scanning calorimeter (DSC, Model DSC600, Linkam Scientific Instruments, Tadworth, U.K.) was mounted in vertical orientation to allow insertion of the DSC into the X-ray beam. The DSC was positioned in the beam line to accept a 100-200 μm square beam under high vacuum. The standard quartz window was replaced with polyimide film (Kapton®, 8 μm thickness, DuPont, Wilmington, Del., USA). An internal thermocouple was installed for temperature recording. A circular charged couple device (CCD) detector (Model Mar165, 165 mm diameter, Marresearch GmbH, Norderstedt, Germany) was used to detect the X-rays scattered from the sample. The detector was equipped with an aluminum cone that covered the detector and extended 100 mm from the face of the detector. This cone was quipped with a beam stop support and 5×3 mm lead beam stop. The cone was continuously purged with helium to minimize air scattering. […]

SMILES	Concentration of Compound 1 in filtrate ([1]; acetone) [wt %]	Concentration of Compound 1 in filtrate ([1]; ethyl acetate) [wt %]	Concentration of Compound 1 in filtrate ([1]; tetrahydrofuran) [wt %]	Concentration of Compound 1 in filtrate ([1]; toluene) [wt %]	Concentration of Compound 1 in filtrate ([1]; water) [wt %]	Filtration time [2] [min]	Relative thermodynamic stability [3]	density [4] [g/mL]	D10 [5] [μm]	D90 [5] [μm]	D50 [5] [μm]	D[4, 3] [5] [μm]	Stability of the crystal form with respect to temperature (pXRD while heating) [6]	Filtration time relative to Polymorph Form A ([2]; about 90 grams)
Cc1cccn2c(=O)c(-c3cc(Cl)cc(Cl)c3)c([O-])[n+](Cc3cnc(Cl)s3)c12 [B + seed A, 1-[(2-chloro-5-thiazolyl)methyl]-3-(3,5-dichlorophenyl)-2-hydroxy-9-methyl-4-oxo-4H-pyrido[1,2-a]pyrimidinium inner salt]	0.34	0.09	1.01	0.023	<0.01	–	–	–	–	–	–	–	–	–
Cc1cccn2c(=O)c(-c3cc(Cl)cc(Cl)c3)c([O-])[n+](Cc3cnc(Cl)s3)c12 [Form A, 1-[(2-chloro-5-thiazolyl)methyl]-3-(3,5-dichlorophenyl)-2-hydroxy-9-methyl-4-oxo-4H-pyrido[1,2-a]pyrimidinium inner salt]	–	–	–	–	–	0.9	more thermodynamically stable than Form B	1.597	13	73	34	39	no crystal form conversion to another polymorph occurred; also recorded: physically and chemically stable in its pure solid form	–
Cc1cccn2c(=O)c(-c3cc(Cl)cc(Cl)c3)c([O-])[n+](Cc3cnc(Cl)s3)c12 [Form B, 1-[(2-chloro-5-thiazolyl)methyl]-3-(3,5-dichlorophenyl)-2-hydroxy-9-methyl-4-oxo-4H-pyrido[1,2-a]pyrimidinium inner salt]	0.34	0.18	1.03	0.049	<0.01	3.0	–	1.582	0.6	19	3.2	6.8	–	more than 3 times
